{
  "source": "patent US20240024403A1",
  "about": "“Compositions and Methods for Managing Weight” (Unigen, Inc., priority 2012, published 2024)",
  "experiment": "High fat diet induced obesity (DIO) mouse model",
  "assay_type": "in vivo, C57CL/6J mice",
  "conditions": "for Total Body Weight / Body Weight: in g (unit assumed)",
  "protocol": "C57CL/6J mice aged 4-6 weeks (Korea Research Institute of Bioscience & Biotechnology, Ohchang, Korea) were housed in Polycarbonate cages (five mice per cage) in a room with a 12 hr:12 hr light-dark cycle and an ambient temperature of 24° C. All the mice were fed a commercial chow diet for 1 week after arrival in the animal facility. Mice were then divided into normal and obesity groups and fed with normal diet (ND) and high fat diets (HFD) respectively. The HFD group was divided into multiple treatment groups: a high fat diet vehicle group (HFD), an orlistat (purchased as OTC drug Alli®) positive control treatment group (ORI, 40 mg/kg of animal weight, 2 times/day) and optionally a sibutramine positive control treatment group (10 mg/kg, 1 time/day). The HFD contained 340 g of fat/kg of HFD (310 g lard plus 30 g soybean oil; Harlan Laboratories, USA). The HFD was formulated to provide 60% of the total energy generated by the diet from fat by replacing carbohydrate energy with lard and soybean oil, whereas the normal diet (ND) group was fed a diet providing only 18% of the total diet energy from fat(Harlan Laboratories, USA).\nBody weight was measured once each week and feed intake was measured twice per week. At the end of the experimental period, following a 12 hr. fasting period, the animals were anesthetized with ether, and blood was drawn from the abdominal vein. Liver and kidney and adipose tissues (epididymal, retroperitoneal, perirenal adipose tissues) were removed from each animal, rinsed with physiological saline, and weighed. Serum concentrations of glucose, total cholesterol, triglycerides, and LDL-cholesterol were determined using automatic analyzer (INTEGRA 400, Roche, Germany). Statistical significance of test results was measured using the Student's t-test.",
  "key": {"[1]": {"conditions": "week 3, mice fed a high fat diet, Mutamba fractions 250 mg/kg oral 2 times per day, mean"}, "[2]": {"conditions": "week 4, DIO mice, oral twice daily, mg/kg/day: ORI 40, Combo (Composition 1A) 800, Magnolia 100, Yerba Mate 500, Morus 200"}, "[3]": {"conditions": "week 4, DIO mice, combination (5:1) 1200 mg/kg twice a day by gavage, group mean"}, "[4]": {"conditions": "week 4, mice fed a high fat diet, Mutamba fractions 250 mg/kg oral 2 times per day, mean"}, "[5]": {"conditions": "week 5, DIO mice, oral twice daily, mg/kg/day: ORI 40, Combo (Composition 1A) 800, Magnolia 100, Yerba Mate 500, Morus 200"}, "[6]": {"conditions": "week 5, DIO mice, combination (5:1) 1200 mg/kg twice a day by gavage, group mean"}, "[7]": {"conditions": "week 5, mice fed a high fat diet, Mutamba fractions 250 mg/kg oral 2 times per day, mean"}, "[8]": {"conditions": "week 6, DIO mice, oral twice daily, mg/kg/day: ORI 40, Combo (Composition 1A) 800, Magnolia 100, Yerba Mate 500, Morus 200"}, "[9]": {"conditions": "week 6, DIO mice, combination (5:1) 1200 mg/kg twice a day by gavage, group mean"}, "[10]": {"conditions": "week 6, mice fed a high fat diet, Mutamba fractions 250 mg/kg oral 2 times per day, mean"}, "[11]": {"conditions": "week 7, DIO mice, oral twice daily, mg/kg/day: ORI 40, Combo (Composition 1A) 800, Magnolia 100, Yerba Mate 500, Morus 200"}, "[12]": {"conditions": "week 7, DIO mice, combination (5:1) 1200 mg/kg twice a day by gavage, group mean"}, "[13]": {"conditions": "week 7, mice fed a high fat diet, Mutamba fractions 250 mg/kg oral 2 times per day, mean"}, "[14]": {"conditions": "week 8, DIO mice, oral twice daily, mg/kg/day: ORI 40, Combo (Composition 1A) 800, Magnolia 100, Yerba Mate 500, Morus 200"}, "[15]": {"conditions": "week 8, mice fed a high fat diet, Mutamba fractions 250 mg/kg oral 2 times per day, mean"}},
  "data": [
    {"smiles": "CCCCCCCCCCC[C@@H](C[C@@H]1OC(=O)[C@H]1CCCCCC)OC(=O)[C@H](CC(C)C)NC=O", "note": "[ORI, orlistat]", "values": [
      {"measurement": "Total Body Weight", "setting": "week 3, DIO mice, combination (5:1) 1200 mg/kg twice a day by gavage, group mean", "value": 35.12},
      {"measurement": "Total Body Weight", "setting": "week 3, ORI 40 mg/kg, DIO mice (Table 52)", "value": 37.41},
      {"measurement": "Total Body Weight", "setting": "week 3, ORI 40 mg/kg, DIO mice", "value": 35.66},
      {"measurement": "Body Weight Gain", "setting": "week 3, ORI 40 mg/kg, mice fed high fat diet", "value": "−6.70"},
      {"measurement": "Body Weight Gain", "setting": "[1]", "value": "−2.63"},
      {"measurement": "Body Weight", "setting": "[1]", "value": 37.14},
      {"measurement": "Weight Gain", "setting": "week 3, orlistat 40 mg/kg oral", "value": "−5.27"},
      {"measurement": "Weight Gain", "setting": "[2]", "value": "−3.84"},
      {"measurement": "Total Body Weight", "setting": "[2]", "value": 36.38},
      {"measurement": "Body Weight Gain", "setting": "week 4, DIO mice, SIB 10 mg/kg, ORI 40 mg/kg, Mutamba extract 32 (G1) 1000 mg/kg/day oral, mean", "value": "−2.35"},
      {"measurement": "Body Weight Gain", "setting": "week 4, DIO mice, SIB 10 mg/kg, ORI 40 mg/kg, Mutamba extract 33-2 G1 1000 mg/kg, mean", "value": "−1.28"},
      {"measurement": "Weight Gain", "setting": "week 4, DIO mice, combination (1:1) 2000 mg/kg twice a day, group mean", "value": "−2.61"},
      {"measurement": "Weight Gain", "setting": "[3]", "value": "−2.61"},
      {"measurement": "Total Body Weight", "setting": "[3]", "value": 35.84},
      {"measurement": "Total Body Weight", "setting": "week 4, ORI 40 mg/kg, DIO mice (Table 52)", "value": 37.60},
      {"measurement": "Total Body Weight", "setting": "week 4, ORI 40 mg/kg, DIO mice", "value": 37.28},
      {"measurement": "Body Weight Gain", "setting": "week 4, ORI 40 mg/kg, mice fed high fat diet", "value": "−5.01"},
      {"measurement": "Body Weight Gain", "setting": "[4]", "value": "−1.28"},
      {"measurement": "Body Weight", "setting": "[4]", "value": 38.49},
      {"measurement": "Weight Gain", "setting": "week 4, orlistat 40 mg/kg oral", "value": "−3.47"},
      {"measurement": "Weight Gain", "setting": "[5]", "value": "−2.57"},
      {"measurement": "Total Body Weight", "setting": "[5]", "value": 37.65},
      {"measurement": "Body Weight Gain", "setting": "week 5, DIO mice, SIB 10 mg/kg, ORI 40 mg/kg, Mutamba extract 32 (G1) 1000 mg/kg/day oral, mean", "value": "−1.84"},
      {"measurement": "Body Weight Gain", "setting": "week 5, DIO mice, SIB 10 mg/kg, ORI 40 mg/kg, Mutamba extract 33-2 G1 1000 mg/kg, mean", "value": 0.43},
      {"measurement": "Weight Gain", "setting": "week 5, DIO mice, combination (1:1) 2000 mg/kg twice a day, group mean", "value": "−2.04"},
      {"measurement": "Weight Gain", "setting": "[6]", "value": "−2.04"},
      {"measurement": "Total Body Weight", "setting": "[6]", "value": 36.41},
      {"measurement": "Total Body Weight", "setting": "week 5, ORI 40 mg/kg, DIO mice (Table 52)", "value": 38.12},
      {"measurement": "Total Body Weight", "setting": "week 5, ORI 40 mg/kg, DIO mice", "value": 38.57},
      {"measurement": "Body Weight Gain", "setting": "week 5, ORI 40 mg/kg, mice fed high fat diet", "value": "−3.81"},
      {"measurement": "Body Weight Gain", "setting": "[7]", "value": 0.43},
      {"measurement": "Body Weight", "setting": "[7]", "value": 40.19},
      {"measurement": "Weight Gain", "setting": "week 5, orlistat 40 mg/kg oral", "value": "−2.34"},
      {"measurement": "Weight Gain", "setting": "[8]", "value": "−1.47"},
      {"measurement": "Total Body Weight", "setting": "[8]", "value": 38.75},
      {"measurement": "Body Weight Gain", "setting": "week 6, DIO mice, SIB 10 mg/kg, ORI 40 mg/kg, Mutamba extract 32 (G1) 1000 mg/kg/day oral, mean", "value": 0.08},
      {"measurement": "Body Weight Gain", "setting": "week 6, DIO mice, SIB 10 mg/kg, ORI 40 mg/kg, Mutamba extract 33-2 G1 1000 mg/kg, mean", "value": 3.52},
      {"measurement": "Weight Gain", "setting": "week 6, DIO mice, combination (1:1) 2000 mg/kg twice a day, group mean", "value": "−1.65"},
      {"measurement": "Weight Gain", "setting": "[9]", "value": "−1.65"},
      {"measurement": "Total Body Weight", "setting": "[9]", "value": 36.80},
      {"measurement": "Total Body Weight", "setting": "week 6, ORI 40 mg/kg, DIO mice (Table 52)", "value": 40.04},
      {"measurement": "Total Body Weight", "setting": "week 6, ORI 40 mg/kg, DIO mice", "value": 40.03},
      {"measurement": "Body Weight Gain", "setting": "week 6, ORI 40 mg/kg, mice fed high fat diet", "value": "−2.36"},
      {"measurement": "Body Weight Gain", "setting": "[10]", "value": 3.52},
      {"measurement": "Body Weight", "setting": "[10]", "value": 43.28},
      {"measurement": "Weight Gain", "setting": "week 6, orlistat 40 mg/kg oral", "value": "−1.08"},
      {"measurement": "Weight Gain", "setting": "[11]", "value": "−0.26"},
      {"measurement": "Total Body Weight", "setting": "[11]", "value": 39.96},
      {"measurement": "Body Weight Gain", "setting": "week 7, DIO mice, SIB 10 mg/kg, ORI 40 mg/kg, Mutamba extract 32 (G1) 1000 mg/kg/day oral, mean", "value": 1.81},
      {"measurement": "Body Weight Gain", "setting": "week 7, DIO mice, SIB 10 mg/kg, ORI 40 mg/kg, Mutamba extract 33-2 G1 1000 mg/kg, mean", "value": 3.72},
      {"measurement": "Weight Gain", "setting": "[12]", "value": "−0.07"},
      {"measurement": "Total Body Weight", "setting": "[12]", "value": 38.38},
      {"measurement": "Total Body Weight", "setting": "week 7, ORI 40 mg/kg, DIO mice (Table 52)", "value": 41.77},
      {"measurement": "Total Body Weight", "setting": "week 7, ORI 40 mg/kg, DIO mice", "value": 40.91},
      {"measurement": "Body Weight Gain", "setting": "week 7, ORI 40 mg/kg, mice fed high fat diet", "value": "−1.42"},
      {"measurement": "Body Weight Gain", "setting": "[13]", "value": 3.72},
      {"measurement": "Body Weight", "setting": "[13]", "value": 43.49},
      {"measurement": "Weight Gain", "setting": "week 7, orlistat 40 mg/kg oral", "value": 0.02},
      {"measurement": "Weight Gain", "setting": "[14]", "value": "−0.23"},
      {"measurement": "Total Body Weight", "setting": "[14]", "value": 39.99},
      {"measurement": "Body Weight Gain", "setting": "week 8, DIO mice, SIB 10 mg/kg, ORI 40 mg/kg, Mutamba extract 32 (G1) 1000 mg/kg/day oral, mean", "value": 2.10},
      {"measurement": "Body Weight Gain", "setting": "week 8, DIO mice, SIB 10 mg/kg, ORI 40 mg/kg, Mutamba extract 33-2 G1 1000 mg/kg, mean", "value": 5.13},
      {"measurement": "Total Body Weight", "setting": "week 8, ORI 40 mg/kg, DIO mice (Table 52)", "value": 42.06},
      {"measurement": "Body Weight Gain", "setting": "[15]", "value": 5.13},
      {"measurement": "Body Weight", "setting": "[15]", "value": 44.90}
    ]}
  ]
}
